Measured values from patent US20170027951A1, “METHODS AND COMPOSITIONS TO TREAT CANCERS INVOLVING EGFR” (Southern Research Institute, priority 2015, published 2017).

Assays:
HCT116 cells [1] = assay: Clonogenic (colony formation) assay in HCT116 cells; assay type: cell-based; details: FIG. 2B; 10 days after treatment; gefitinib 5 μM, JNJ 38877605 1 μM, PD184161 0.01 or 0.02 μM
Procedure: HCT116 cells, which are MT KRas, were treated with gefitinib (5 μM) in the absence or presence of a MET kinase inhibitor (JNJ 38877605; 1 μM) or a MEKI kinase inhibitor (PD184161; 0.01 μM or 0.02 μM) as indicated.
(§1) For clonogenic assay cells were seeded in 6-well plates at a density of 400 cells per well and were treated as indicated. After colony formation (8-12 days), cells were stained with crystal violet (0.5% w/v) (see Kueng W., et al., Anal Biochem (1989) 182: 16-19), and the number of colonies was determined using ImageQuant TL software (GE Healthcare Life Sciences, Pittsburgh, Pa., US).

RKO cells [2] = assay: Clonogenic (colony formation) assay in RKO cells; assay type: cell-based; details: FIG. 1B; 10 days after treatment; gefitinib 5 μM, JNJ 38877605 1 μM, PD184161 0.01, 0.05 or 1 μM
Procedure: as §1
The effect of treatment with gefitinib alone or in combination with an inhibitor of MET kinase activity (using the inhibitor JNJ388777605) or inhibitor of MEK kinase activity (using the inhibitor PD184161) on viability and clonogenic growth was determined in RKO and HT29 cells.

HCT116 cells [3] = assay: CellTiter-Glo cell viability assay in HCT116 cells (MT KRas, express HGF); assay type: cell-based; details: FIG. 2A; 96 hours after treatment; gefitinib 5 μM, JNJ 38877605 1 μM, PD184161 0.01 or 0.02 μM
Source text: Due to the presence of MT KRas, HCT116 cells have activated ERK signaling.

RKO cells [4] = assay: CellTiter-Glo cell viability assay in RKO cells (WT KRas, express HGF); assay type: cell-based; details: FIG. 1A; 96 hours after treatment; gefitinib 5 μM, JNJ 38877605 1 μM, PD184161 0.01, 0.05 or 1 μM
Procedure: Cell viability assays were conducted using the CellTiter-Glo® Luminescent Cell Viability Assay kit purchased from Promega Corporation (Madison, Wis., US) and used per the manufacturer's protocol. Cells were seeded in 96-well plates at a density of 1×10^4 cells per well and cell viability was assessed at the indicated time points.

DiFi cells = assay: Caspase-Glo 3/7 activity assay in DiFi cells with or without CCD-18Co fibroblast conditioned medium; assay type: cell-based; details: FIG. 3C, 18 hr post-treatment; for caspase 3/7 activity (apoptosis), single agent: gefitinib 1 μM or JNJ 38877605 1 μM alone, no fibroblast conditioned media
Source text: Media were removed and replaced with serum-free MEM.

ERK 1/2 = assay: Western blot of ERK 1/2 phosphorylation in RKO cells; assay type: cell-based; details: FIG. 1D, gefitinib dose or times post-treatment
Procedure: Immunoblotting was performed using standard procedures. Nitrocellulose membranes (GE Healthcare Life Sciences, Pittsburgh, Pa.) were blocked with 5% non-fat milk for 1 hour at room temperature, and incubated with primary antibodies overnight at 4° C. Primary antibodies used were anti-p-ERK1/2 (Cell Signaling Technology, Inc., Danvers, Mass., US) and anti-β-actin (Sigma-Aldrich Co. LLC, Saint Louis, Mo., US). Following washing with TBS-T buffer, membranes were incubated with horseradish peroxidase-conjugated secondary antibodies for 1 hour and then washed with TBS-T. Immunoblots were developed using the Amersham Western Blotting ECL chemiluminescent reagents (GE Healthcare Life Sciences, Pittsburgh, Pa., US). Protein loading was normalized by probing blots for the expression of β-actin.

[5] = patients with mCRC, Amado et al. 2008; cited from earlier work

Compound	effect on clonogenic growth (colony formation) of HCT116 cells (HCT116 cells [1])	effect on clonogenic growth (colony formation) of RKO cells (RKO cells [2])	effect on HCT116 cell viability (HCT116 cells [3])	effect on RKO cell viability (RKO cells [4])	caspase 3/7 activity (apoptosis), single agent (DiFi cells)	phosphorylation status of ERK 1/2 (p-ERK 1/2 by Western blot) (ERK 1/2)	caspase 3/7 activity (apoptosis) in the presence of fibroblast conditioned media (FIB) (DiFi cells; gefitinib 1 μM, JNJ 38877605 1 μM, CCD-18Co conditioned media)	KRas WT patients who benefit [5] [%]
Cn1cc(-c2ccc3nnc(C(F)(F)c4ccc5ncccc5c4)n3n2)cn1 [JNJ 38877605]	no apparent effect on clonogenic growth	no apparent effect on clonogenic growth	no apparent effect on cell viability	no apparent effect on cell viability	no apparent effect on induction of caspases/apoptosis			
COc1cc2ncnc(Nc3ccc(F)c(Cl)c3)c2cc1OCCCN1CCOCC1 [gefitinib]	no apparent effect on clonogenic growth	no apparent effect on clonogenic growth	modestly decreased cell viability	modest	increase in caspase 3/7 activity	an increase in the amount of p-ERK 1/2	inhibit gefitinib-induced apoptosis	
PD184161	no apparent effect on clonogenic growth	no apparent effect on clonogenic growth	no apparent effect on cell viability	no apparent effect on cell viability				
panitumumab								17
